From BindingDB's records for doi:10.1021/jm00107a048 (Roche Research Center, 1991)

Target: Platelet-activating factor receptor (Canis lupus familiaris)
Experiment: PAF-antagonist activity determined in dog platelets by PAF-binding assay

`Cc1nnc2n1-c1sc(C#CCn3c4c(c5cc(Cl)ccc53)CCCC4)cc1C(c1ccccc1Cl)=NC2` showed an IC50 of 90 nM.

`Cc1nnc2n1-c1sc(C#CCN3Cc4cccc5cccc(c45)C3=O)cc1C(c1ccccc1Cl)=NC2` showed an IC50 of 4 nM.

Compound `Cc1nnc2n1-c1sc(C#CCn3c(=O)n(-c4ccccc4)c4ccccc43)cc1C(c1ccccc1Cl)=NC2` has an IC50 of 1 nM.

`Cc1nnc2n1-c1sc(C#CCn3c4c(c5ccccc53)CCCCC4)cc1C(c1ccccc1Cl)=NC2` was tested, and the IC50 was 15 nM.

In the case of `Cc1nnc2n1-c1sc(C#CCn3c4c(c5ccccc53)CCCC4)cc1C(c1ccccc1Cl)=NC2`, the IC50 is reported as 7 nM.

In the case of `Cc1nnc2n1-c1ccc(C#CCN3C(=O)CCc4ccccc43)cc1C(c1ccc(Cl)cc1)=NC2`, the IC50 is reported as 100 nM.

Compound `Cc1nnc2n1-c1sc(C#CCN3C(=O)C(=O)c4ccccc43)cc1C(c1ccccc1Cl)=NC2` has an IC50 of 7 nM.

Work on `Cc1nnc2n1-c1sc(C#CCN3C(=O)CCc4ccccc43)cc1C(c1cc(O)ccc1Cl)=NC2` yielded an IC50 of 80 nM.

With `Cc1nnc2n1-c1sc(C#CCN3C(=O)CCc4ccc(Cl)cc43)cc1C(c1ccccc1Cl)=NC2` the IC50 was 7 nM.

`Cc1nnc2n1-c1ccc(C#CCN3C(=O)c4ccccc4C3=O)cc1C(c1ccccc1F)NC2` (stereo not given) showed an IC50 of 110 nM.

`Cc1nnc2n1-c1sc(C#CCn3c(=O)n(C)c(=O)c4ccccc43)cc1C(c1ccccc1Cl)=NC2` showed an IC50 of 0.6 nM.

`Cc1nnc2n1-c1ccc(C#CCN3C(=O)CCc4ccccc43)cc1C(c1ccccc1F)=N[C@H]2C` was tested, and the IC50 was 6 nM.

`Cc1nnc2n1-c1sc(C#CCn3c(=O)[nH]c4ccccc43)cc1C(c1ccccc1Cl)=NC2` gave an IC50 of 9 nM.

Compound `Cc1nnc2n1-c1sc(C#CCn3c(=O)c4ccccc4c4ccccc43)cc1C(c1ccccc1Cl)=NC2O` (stereo not given) has an IC50 of 25 nM.

`O=C1c2ccccc2C(=O)N1CC#Cc1ccc2c(c1)C(c1ccccc1F)=NCc1nncn1-2` was tested, and the IC50 was 1000 nM.

`O=c1c2ccccc2c2ccccc2n1CC#Cc1cc2c(s1)-n1c(CO)nnc1CN=C2c1ccccc1Cl` showed an IC50 of 75 nM.

Compound `O=C1CCc2ccccc2N1CC#Cc1ccc2c(c1)C(c1ccccc1F)=NCc1nnc(C(F)(F)F)n1-2` has an IC50 of 200 nM.

`Cc1nnc2n1-c1sc(C#CCn3c(=O)n(CCN(C)C)c4ccccc43)cc1C(c1ccccc1Cl)=NC2` was tested, and the IC50 was 30 nM.

`CCc1nnc2n1-c1ccc(C#CCN3C(=O)c4ccccc4C3=O)cc1C(c1ccccc1F)=NC2` showed an IC50 of 100 nM.

In the case of `Cc1nnc2n1-c1ccc(I)cc1C(c1ccccc1F)=NC2`, the IC50 is reported as 1000 nM.

For `Cc1nnc2n1-c1sc(C#CCn3c(=O)c4ccccc4c4ccccc4c3=O)cc1C(c1ccccc1Cl)=NC2`, the IC50 was 51 nM.

Compound `Cc1nnc2n1-c1sc(C#CCC34CCCc5cccc(c53)NC4=O)cc1C(c1ccccc1Cl)=NC2` (stereo not given) has an IC50 of 0.7 nM.

With `Cc1nnc2n1-c1sc(C#CCn3cnc4ccccc43)cc1C(c1ccccc1Cl)=NC2` the IC50 was 5 nM.

`Cc1nnc2n1-c1sc(C#CCOc3cccnc3)cc1C(c1ccccc1Cl)=NC2` was tested, and the IC50 was 4 nM.

In the case of `Cc1nnc2n1-c1sc(C#CCN3C(=O)Cn4ccc5c(Cl)ccc3c54)cc1C(c1ccccc1Cl)=NC2`, the IC50 is reported as 15 nM.

In the case of `Cc1nnc2n1-c1sc(I)cc1C(c1cc([N+](=O)[O-])ccc1Cl)=NC2`, the IC50 is reported as 360 nM.

`Cc1nnc2n1-c1sc(C#CCn3c4c(c5cc(Cl)ccc53)CCCCC4)cc1C(c1ccccc1Cl)=NC2` showed an IC50 of 70 nM.

`Cc1nnc2n1-c1sc(C#CCN3C(=O)COc4ccccc43)cc1C(c1ccccc1Cl)=NC2` was tested, and the IC50 was 0.7 nM.

`Cc1nnc2n1-c1sc(C#CCN3C(=O)CCc4ccccc43)cc1C(c1ccccc1Cl)=NC2` was tested, and the IC50 was 0.2 nM.

Work on `Cc1nnc2n1-c1sc(C#CCn3c(=O)c4ccccc4c4ccccc43)cc1C(c1ccccc1Cl)NC2=O` (stereo not given) yielded an IC50 of 560 nM.

`Cc1nnc2n1-c1sc(C#CCn3c(=O)c4ccccc4c4ccccc43)cc1C(c1ccccc1Cl)=NC2` was tested, and the IC50 was 13 nM.

Compound `Cc1nnc2n1-c1sc(C#CCn3ncc4ccccc43)cc1C(c1ccccc1Cl)=NC2` has an IC50 of 1 nM.

With `Cc1nnc2n1-c1sc(C#CCN3C(=O)c4cccc5cccc(c45)C3=O)cc1C(c1ccccc1Cl)=NC2` the IC50 was 12 nM.

Compound `Cc1nnc2n1-c1ccc(C#CCOc3cccnc3)cc1C(c1ccccc1Cl)=NC2` has an IC50 of 130 nM.

Compound `Cc1nnc2n1-c1sc(C#CCN3C(=O)CCc4ccccc43)cc1C(c1cc([N+](=O)[O-])ccc1Cl)=NC2` has an IC50 of 75 nM.

In the case of `C=C=Cn1c(=O)n(CC#Cc2cc3c(s2)-n2c(C)nnc2CN=C3c2ccccc2Cl)c2ccccc21`, the IC50 is reported as 6 nM.

`Cc1nnc2n1-c1sc(C#CCn3c(=O)n(C)c4ccccc43)cc1C(c1ccccc1Cl)=NC2` gave an IC50 of 0.3 nM.

`Cc1nnc2n1-c1sc(C#CCN3C(=O)CCc4cc(Cl)cc(Cl)c43)cc1C(c1ccccc1Cl)=NC2` showed an IC50 of 9 nM.

`Cc1nnc2n1-c1sc(C#CCn3c(=O)n(CCN(C)C)c(=O)c4ccccc43)cc1C(c1ccccc1Cl)=NC2` was tested, and the IC50 was 150 nM.

Work on `Cc1nnc2n1-c1sc(C#CCn3ccc4ccccc4c3=O)cc1C(c1ccccc1Cl)=NC2` yielded an IC50 of 1 nM.

For `Cc1nnc2nc(-c3ccccc3F)c3cc(C#CCN4C(=O)c5ccccc5C4=O)ccc3n12`, the IC50 was 300 nM.

In the case of `Cc1nnc2n1-c1sc(C#CCN3C(=O)COc4ccc(Cl)cc43)cc1C(c1ccccc1Cl)=NC2`, the IC50 is reported as 5 nM.

For `Cc1nnc2n1-c1ccc(I)cc1C(c1ccccc1F)NC2` (stereo not given), the IC50 was 1000 nM.

Compound `Cc1nnc2n1-c1sc(I)cc1C(c1ccccc1Cl)=NC2C` (stereo not given) has an IC50 of 120 nM.

Work on `Cc1nnc2n1-c1ccc(C#CCN3C(=O)c4ccccc4C3=O)cc1C(c1ccccc1Cl)=NC2` yielded an IC50 of 20 nM.

`Cc1nnc2n1-c1sc(C#CCN3C(=O)NCc4ccccc43)cc1C(c1ccccc1Cl)=NC2` showed an IC50 of 6 nM.

In the case of `Cc1nnc2n1-c1sc(C#CCn3c4ccccc4c4ccccc43)cc1C(c1ccccc1Cl)=NC2`, the IC50 is reported as 120 nM.

In the case of `Cc1nnc2n1-c1sc(C#CCN3C(=O)Cc4ccccc43)cc1C(c1ccccc1Cl)=NC2`, the IC50 is reported as 3 nM.

`Cc1nnc2n1-c1ccc(I)cc1C(c1ccccc1Cl)=NC2` was tested, and the IC50 was 1000 nM.

`Cc1nnc2n1-c1ccc(C#CCN3C(=O)c4ccccc4C3=O)cc1C(c1ccccc1F)=NC2` gave an IC50 of 10 nM.

`Cc1nnc2n1-c1sc(C#CCN3C(=O)c4cccc5cccc3c45)cc1C(c1ccccc1Cl)=NC2` gave an IC50 of 5 nM.

`Cc1nnc2n1-c1sc(C#CCn3c(=O)c4cc(Cl)ccc4c4ccc(Cl)cc43)cc1C(c1ccccc1Cl)=NC2` was tested, and the IC50 was 30 nM.

Work on `Cc1nnc2n1-c1sc(C#CCN3C(=O)CC(C)(C)c4ccccc43)cc1C(c1ccccc1Cl)=NC2` yielded an IC50 of 12 nM.

`Cc1nnc2n1-c1sc(C#CCn3c(=O)ccc4ccccc43)cc1C(c1ccccc1Cl)=NC2` gave an IC50 of 2 nM.

`Cc1nnc2n1-c1ccc(C#CCN3C(=O)CCc4ccccc43)cc1C(c1ccccc1F)=NC2` showed an IC50 of 20 nM.

`COc1cc2c(cc1OC)C(=O)N(CC#Cc1cc3c(s1)-n1c(C)nnc1CN=C3c1ccccc1Cl)CC2` showed an IC50 of 25 nM.

`O=C1CCc2ccccc2N1CC#Cc1ccc2c(c1)C(c1ccc(Cl)cc1)=NCc1nnc(C(F)(F)F)n1-2` showed an IC50 of 1000 nM.

`Cc1nnc2n1-c1sc(C#CCn3c(=O)c4ccccc4c4ccccc43)cc1C(c1cc(O)ccc1Cl)=NC2` showed an IC50 of 15 nM.

`Cc1nnc2n1-c1sc(C#CCN3C(=O)C4(C)CCCc5cccc3c54)cc1C(c1ccccc1Cl)=NC2` (stereo not given) showed an IC50 of 12 nM.

`Cc1nnc2n1-c1sc(C#CCn3c(=O)c4ccccc4c4ccccc43)cc1C(c1ccccc1Cl)=NC2C` (stereo not given) showed an IC50 of 250 nM.
